Broadly, the pKi is the negative decadic logarithm of the Ki, by convention in mol/L. A high value points to a low Ki.

Each structure is given as a SMILES string. pKi: −log10 of the molar value. Where a name gives a salt, the structure may show the parent alone.

Ki data for 26 compounds are collected here from patent US20260124214A1, “HETEROCYCLIC COMPOUNDS FOR USE IN THE TREATMENT OF CANCER” (ARTIOS PHARMA LIMITED, priority 2021, published 2026).

This assay deals with T1, Human Polθ polymerase domain (aa1820-2590) (Homo sapiens, UniProt O75417).
T1 construct: Human Polθ polymerase domain (aa1820-2590) was expressed in E. Coli; made in house; host or cells: E. coli
T1 sequence (O75417 1820-2590): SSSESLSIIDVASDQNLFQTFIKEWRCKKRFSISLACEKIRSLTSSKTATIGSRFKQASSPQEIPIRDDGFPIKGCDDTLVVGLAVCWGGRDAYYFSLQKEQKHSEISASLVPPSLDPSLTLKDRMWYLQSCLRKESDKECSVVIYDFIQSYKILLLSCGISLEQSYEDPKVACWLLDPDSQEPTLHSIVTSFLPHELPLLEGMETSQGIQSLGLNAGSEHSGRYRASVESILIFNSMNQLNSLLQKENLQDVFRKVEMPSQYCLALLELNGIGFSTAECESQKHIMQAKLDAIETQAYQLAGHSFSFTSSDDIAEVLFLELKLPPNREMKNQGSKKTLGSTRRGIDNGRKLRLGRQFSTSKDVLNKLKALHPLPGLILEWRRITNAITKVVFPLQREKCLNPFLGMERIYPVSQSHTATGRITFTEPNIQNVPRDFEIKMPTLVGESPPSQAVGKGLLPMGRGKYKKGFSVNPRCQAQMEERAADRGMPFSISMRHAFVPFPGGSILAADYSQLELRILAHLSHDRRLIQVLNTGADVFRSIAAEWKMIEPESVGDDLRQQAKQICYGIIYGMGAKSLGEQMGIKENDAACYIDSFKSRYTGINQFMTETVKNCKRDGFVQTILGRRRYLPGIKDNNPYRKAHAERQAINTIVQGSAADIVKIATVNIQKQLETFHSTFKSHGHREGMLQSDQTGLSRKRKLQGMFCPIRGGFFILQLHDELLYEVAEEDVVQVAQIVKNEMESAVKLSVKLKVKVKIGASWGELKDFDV
Kind of assay: Polθ Polymerase Domain WT KI Assay (PicoGreen). It is filed as biochemical. Particulars: 100 nM DNA substrate, 0.156 nM Polθ, initial rates vs inhibitor concentration. The protocol: A PicoGreen assay was used to measure the KI values of reversible compounds that inhibit the activity of Polθ in vitro.
Human Polθ polymerase domain (aa1820-2590) was expressed in E. Coli, purified, aliquoted and stored at −80° C. until required. Polθ substrate was generated from a 1.2:1 mix of DNA II Short to DNA II Long to give a final concentration of […] substrate in annealing buffer (20 mM Tris pH 7.5, 50 mM NaCl). The substrate was heated in 50 mL aliquots to 95° C. in a heating block for 5 min before the heating block switched off, the reaction left to cool to rt and stored at −20° C. until required.
Assay measurements were performed with 1× buffer comprising 25 mM Tris pH 7.5, 12.5 mM NaCl, […], 5% (v/v) glycerol, 0.01% v/v Triton x-100, 0.1 mg/ml BSA, 1 mM DTT. […] 100 nL of 23×1:1.5-fold serial dilutions and a DMSO only control were dispensed using the Tecan dispenser into Greiner 384 well black low volume plates (product code 784076). DMSO concentration was maintained at 1% of the final assay volume by back filling with DMSO.
To stop the reaction, 5 μL of a solution containing 25 mM Tris-HCl PH 7.5 and 20 mM EDTA was added at […] (t=0, 15, 30, 60, 90, 120, 150, 180 mins) using the Tempest's time delay function. The plates were covered during the time course to prevent evaporation. After completing the assay, 5 μL of detection reagent (25 mM Tris-HCl pH 7.5 and 2.5% (v/v) PicoGreen) was dispensed into the wells using a Tempest liquid handler (Formulatrix) and plates subsequently read on the CLARIOstar Plus (BMG Labtech) using the default optical settings for fluorescein and the auto gain/focus settings.
All data analysis was carried out using GraphPad Prism V.8 (GraphPad Software Inc, San Diego, CA). Time course data for each inhibitor concentration were fitted to the linear regression model in GraphPad Prism. Any time points where the control (DMSO only) reaction was no longer linear were excluded from the analysis. The initial rates (slopes) obtained from the linear regression were then plotted against inhibitor concentration and fitted to an inhibitor vs. response variable slope (four parameter) model on GraphPad Prism to determine the KI values.
As for `Cc1cc(C(F)(F)F)cc(N2C(=O)C[C@@H]3CN(CC4COCCN4)c4c(F)cccc4N(C)C(=O)[C@H]32)n1` (single isomer, unassigned) [Example 106a], the negative logarithm of the Ki (pKi) is 7.86.
For `Cc1cc(C(F)(F)F)cc(N2C(=O)C[C@@H]3CN(CC4CCCN4)c4c(Cl)cccc4N(C)C(=O)[C@H]32)n1` (single isomer, unassigned) [Example 107a] the value was 8.41; for `Cc1cc(C(F)(F)F)cc(N2C(=O)C[C@@H]3CN(CC4COCCN4)c4c(Cl)cccc4N(C)C(=O)[C@H]32)n1` (single isomer, unassigned) [Example 108b], 8.81; for `Cc1cc(C(F)(F)F)cc(N2C(=O)C[C@@H]3CN(CC4CNCCO4)c4c(Cl)cccc4N(C)C(=O)[C@H]32)n1` (single isomer, unassigned) [Example 109a], 8.95.
For `Cc1cc(C(F)(F)F)cc(N2C(=O)C[C@@H]3CN(CC4COCCN4)c4c(C)cccc4N(C)C(=O)[C@H]32)n1` (single isomer, unassigned) [Example 112a] the value was 8.38; for `Cc1cc(C(F)(F)F)cc(N2C(=O)C[C@@H]3CN(Cc4cn5c(n4)C(C)N(C)CC5)c4c(C)cccc4N(C)C(=O)[C@H]32)n1` (single isomer, unassigned) [Example 116a], 9.20; for `Cc1cc(C(F)(F)F)cc(N2C(=O)C[C@@H]3CN(CC4CCCCN4C)c4c(Cl)cccc4N(C)C(=O)[C@H]32)n1` (single isomer, unassigned) [Example 117a], 8.47.
For `Cc1cc(C(F)(F)F)cc(N2C(=O)C[C@@H]3CN(CC4CCCN4C)c4c(Cl)cccc4N(C)C(=O)[C@H]32)n1` (single isomer, unassigned) [Example 118a] the value was 8.07; for `Cc1cc(C(F)(F)F)cc(N2C(=O)C[C@@H]3CN(CC4COCCN4C)c4c(Cl)cccc4N(C)C(=O)[C@H]32)n1` (single isomer, unassigned) [Example 119b], 8.97; for `Cc1cc(C(F)(F)F)cc(N2C(=O)C[C@@H]3CN(CC4CN(C)CCO4)c4c(Cl)cccc4N(C)C(=O)[C@H]32)n1` (single isomer, unassigned) [Example 120a, hydrochloride], 8.86.
In the case of `Cc1cc(C(F)(F)F)cc(N2C(=O)C[C@@H]3CN(Cc4ccc(C5CCCN5C)cc4)c4c(F)cccc4N(C)C(=O)[C@H]32)n1` (single isomer, unassigned) [Example 125a, hydrochloride], the negative logarithm of the Ki (pKi) is 8.10.
On to `Cc1cc(C(F)(F)F)cc(N2C(=O)C[C@@H]3CN(C[C@H]4CCN(C)[C@@H](C)C4)c4c(Cl)cccc4N(C)C(=O)[C@H]32)n1` (single isomer, unassigned) [Example 126a], for which the pKi is 8.81.
For `Cc1cc(C(F)(F)F)cc(N2C(=O)C[C@@H]3CN(C[C@@H]4CCN(C)[C@H](C)C4)c4c(Cl)cccc4N(C)C(=O)[C@H]32)n1` (single isomer, unassigned) [Example 126b] the value was 8.72; for `Cc1cc(C(F)(F)F)cc(N2C(=O)C[C@@H]3CN(C[C@H]4CCN(C)[C@H](C)C4)c4c(Cl)cccc4N(C)C(=O)[C@H]32)n1` (single isomer, unassigned) [Example 126c], 9.05; for `Cc1cc(C(F)(F)F)cc(N2C(=O)C[C@@H]3CN(C[C@@H]4CCN(C)[C@@H](C)C4)c4c(Cl)cccc4N(C)C(=O)[C@H]32)n1` (single isomer, unassigned) [Example 126d], 8.83.
On to `Cc1cc(C(F)(F)F)cc(N2C(=O)C[C@@H]3CN(CC(C)O)c4c(F)cccc4N(C)C(=O)[C@H]32)n1` (single isomer, unassigned) [Example 130b], for which the negative-log Ki (pKi) is 7.99.
In the case of `Cc1cc(C(F)(F)F)cc(N2C(=O)C[C@@H]3CN(CC(C)O)c4c(Cl)cccc4N(C)C(=O)[C@H]32)n1` (single isomer, unassigned) [Example 131b], the pKi is 8.72.
In turn, `Cc1cc(C(F)(F)F)cc(N2C(=O)C[C@@H]3CN(CC(O)CN(C)C)c4c(Cl)cccc4N(C)C(=O)[C@H]32)n1` (single isomer, unassigned) [Example 132b] had a negative logarithm of the Ki (pKi) of 8.21.
In turn, `Cc1cc(C(F)(F)F)cc(N2C(=O)C[C@@H]3CN(CC(O)CN4CCOCC4)c4c(Cl)cccc4N(C)C(=O)[C@H]32)n1` (single isomer, unassigned) [Example 133b] showed a pKi of 8.61.
In the case of `Cc1cc(C(F)(F)F)cc(N2C(=O)C[C@@H]3CNc4c(F)cccc4N(C)C(=O)[C@H]32)n1` [Example 1, (3aR,11aS)-6-Fluoro-10-methyl-1-(6-methyl-4-(trifluoromethyl)pyridin-2-yl)-1,3a,4,5,10,11a-hexahydro-2H-benzo[b]pyrrolo[2,3-f][1,4]diazocine-2,11(3H)-dione] it was 7.82; in that of `Cc1cc(C(F)(F)F)cc(N2C(=O)C[C@@H]3CNc4c(Cl)cccc4N(C)C(=O)[C@H]32)n1` [Example 2, (3aR,11aS)-6-Chloro-10-methyl-1-(6-methyl-4-(trifluoromethyl)pyridin-2-yl)-1,3a,4,5,10,11a-hexahydro-2H-benzo[b]pyrrolo[2,3-f][1,4]diazocine-2,11(3H)-dione], 9.07; in that of `Cc1cc(C(F)(F)F)cc(N2C(=O)C[C@@H]3CNc4c(C)cccc4N(C)C(=O)[C@H]32)n1` [Example 3, (3aR,11aS)-6,10-Dimethyl-1-(6-methyl-4-(trifluoromethyl)pyridin-2-yl)-1,3a,4,5,10,11a-hexahydro-2H-benzo[b]pyrrolo[2,3-f][1,4]diazocine-2,11(3H)-dione], 9.03.
In the case of `C=CCN1C[C@H]2CC(=O)N(c3cc(C(F)(F)F)cc(C)n3)[C@@H]2C(=O)N(C)c2cccc(F)c21` [Example 4, (3aR,11aS)-5-Allyl-6-fluoro-10-methyl-1-(6-methyl-4-(trifluoromethyl)pyridin-2-yl)-1,3a,4,5,10,11a-hexahydro-2H-benzo[b]pyrrolo[2,3-f][1,4]diazocine-2,11(3H)-dione] it was 8.08; in that of `C=CCN1C[C@H]2CC(=O)N(c3cc(C(F)(F)F)cc(C)n3)[C@@H]2C(=O)N(C)c2cccc(Cl)c21` [Example 5, (3aR,11aS)-5-Allyl-6-chloro-10-methyl-1-(6-methyl-4-(trifluoromethyl)pyridin-2-yl)-1,3a,4,5,10,11a-hexahydro-2H-benzo[b]pyrrolo[2,3-f][1,4]diazocine-2,11(3H)-dione], 8.83.
As for `C=CCN1C[C@H]2CC(=O)N(c3cc(C(F)(F)F)cc(C)n3)[C@@H]2C(=O)N(C)c2c(F)c(F)cc(Cl)c21` [Example 6, (3aR,11aS)-5-Allyl-6-chloro-8,9-difluoro-10-methyl-1-(6-methyl-4-(trifluoromethyl)pyridin-2-yl)-1,3a,4,5,10,11a-hexahydro-2H-benzo[b]pyrrolo[2,3-f][1,4]diazocine-2,11(3H)-dione], the pKi was 8.29.
In the case of `Cc1cc(C(F)(F)F)cc(N2C(=O)C[C@@H]3CN(CCN4CCN(C)CC4)c4c(Cl)cccc4N(C)C(=O)[C@H]32)n1` [Example 7, (3aR,11aS)-6-Chloro-10-methyl-1-(6-methyl-4-(trifluoromethyl)pyridin-2-yl)-5-(2-(4-methylpiperazin-1-yl)ethyl)-1,3a,4,5,10,11a-hexahydro-2H-benzo[b]pyrrolo[2,3-f][1,4]diazocine-2,11(3H)-dione] it was 8.70.
